For 25 compounds, Ki results are on record in US20090099158A1, “TETRAHYDROISOQUINOLINE COMPOUNDS AS MODULATORS OF THE HISTAMINE H3 RECEPTOR” (priority 2007, published 2009).

For this assay, the target named is T1, cloned human H3 receptors (Homo sapiens, UniProt Q9Y5N1).
T1 construct: expressed in transfected cells; host or cells: SK-N-MC cells
T1 sequence (Q9Y5N1 whole entry): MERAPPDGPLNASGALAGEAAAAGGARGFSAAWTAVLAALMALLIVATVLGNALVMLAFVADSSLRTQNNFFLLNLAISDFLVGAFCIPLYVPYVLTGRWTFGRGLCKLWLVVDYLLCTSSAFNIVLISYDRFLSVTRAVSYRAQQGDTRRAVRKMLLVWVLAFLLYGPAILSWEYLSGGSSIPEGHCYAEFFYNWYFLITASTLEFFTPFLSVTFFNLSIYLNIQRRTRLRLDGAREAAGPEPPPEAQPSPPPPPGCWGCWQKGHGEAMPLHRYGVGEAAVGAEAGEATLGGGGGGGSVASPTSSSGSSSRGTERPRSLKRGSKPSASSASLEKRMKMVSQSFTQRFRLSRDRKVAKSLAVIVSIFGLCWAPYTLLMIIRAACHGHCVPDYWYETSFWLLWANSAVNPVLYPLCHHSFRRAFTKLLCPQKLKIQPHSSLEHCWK
Briefly: H3 Receptor Binding (Human). The conditions noted are these: cloned human H3 receptors stably expressed in SK-N-MC cells; average of the results obtained. The method, then: Binding of compounds to the cloned human H3 receptors, stably expressed in SK-N-MC cells, was performed as described by Barbier, A. J. et al. (Br. J. Pharmacol. 2004, 143(5), 649-661). Data for compounds tested in this assay are presented in Table 1 as an average of the results obtained.
Usually Ki stands for the dissociation constant of the complex between target and ligand, obtained from inhibition or displacement. Lower therefore signals tighter binding. For the compound `O=C(c1ccc2c(c1)CCN(C(=O)c1ccccc1F)C2)N1CCN2CCCCC2C1` (stereo not shown) [Example 86, [2-(2-Fluoro-benzoyl)-1,2,3,4-tetrahydro-isoquinolin-6-yl]-(octahydro-pyrido[1,2-a]pyrazin-2-yl)-methanone], the affinity corresponds to a Ki of 27 nM.
As for `O=C(c1cccc(F)c1)N1CCc2cc(C(=O)N3CCN4CCCCC4C3)ccc2C1` (stereo not shown) [Example 87, [2-(3-Fluoro-benzoyl)-1,2,3,4-tetrahydro-isoquinolin-6-yl]-(octahydro-pyrido[1,2-a]pyrazin-2-yl)-methanone], the figure is 23 nM; as for `O=C(c1ccc(F)cc1)N1CCc2cc(C(=O)N3CCN4CCCCC4C3)ccc2C1` (stereo not shown) [Example 88, [2-(4-Fluoro-benzoyl)-1,2,3,4-tetrahydro-isoquinolin-6-yl]-(octahydro-pyrido[1,2-a]pyrazin-2-yl)-methanone], 24 nM; as for `O=C(c1ccc2c(c1)CCN(C(=O)c1ccccc1Cl)C2)N1CCN2CCCCC2C1` (stereo not shown) [Example 89, [2-(2-Chloro-benzoyl)-1,2,3,4-tetrahydro-isoquinolin-6-yl]-(octahydro-pyrido[1,2-a]pyrazin-2-yl)-methanone], 21 nM.
As for `O=C(c1cccc(Cl)c1)N1CCc2cc(C(=O)N3CCN4CCCCC4C3)ccc2C1` (stereo not shown) [Example 90, [2-(3-Chloro-benzoyl)-1,2,3,4-tetrahydro-isoquinolin-6-yl]-(octahydro-pyrido[1,2-a]pyrazin-2-yl)-methanone], the figure is 19 nM.
For `O=C(c1ccc(Cl)cc1)N1CCc2cc(C(=O)N3CCN4CCCCC4C3)ccc2C1` (stereo not shown) [Example 91, [2-(4-Chloro-benzoyl)-1,2,3,4-tetrahydro-isoquinolin-6-yl]-(octahydro-pyrido[1,2-a]pyrazin-2-yl)-methanone] the value was 25 nM.
`COc1ccccc1C(=O)N1CCc2cc(C(=O)N3CCN4CCCCC4C3)ccc2C1` (stereo not shown) [Example 92, [2-(2-Methoxy-benzoyl)-1,2,3,4-tetrahydro-isoquinolin-6-yl]-(octahydro-pyrido[1,2-a]pyrazin-2-yl)-methanone] yielded a Ki of 23 nM.
As for `COc1cccc(C(=O)N2CCc3cc(C(=O)N4CCN5CCCCC5C4)ccc3C2)c1` (stereo not shown) [Example 93, [2-(3-Methoxy-benzoyl)-1,2,3,4-tetrahydro-isoquinolin-6-yl]-(octahydro-pyrido[1,2-a]pyrazin-2-yl)-methanone], the figure is 17 nM.
For `N#Cc1cccc(C(=O)N2CCc3cc(C(=O)N4CCN5CCCCC5C4)ccc3C2)c1` (stereo not shown) [Example 94, 3-[6-(Octahydro-pyrido[1,2-a]pyrazine-2-carbonyl)-3,4-dihydro-1H-isoquinoline-2-carbonyl]-benzonitrile], the affinity corresponds to a Ki of 22 nM.
Take `N#Cc1ccc(C(=O)N2CCc3cc(C(=O)N4CCN5CCCCC5C4)ccc3C2)cc1` (stereo not shown) [Example 95, 4-[6-(Octahydro-pyrido[1,2-a]pyrazine-2-carbonyl)-3,4-dihydro-1H-isoquinoline-2-carbonyl]-benzonitrile]: the Ki was determined as 16 nM.
As for `Cc1ccccc1C(=O)N1CCc2cc(C(=O)N3CCN4CCCCC4C3)ccc2C1` (stereo not shown) [Example 96, [2-(2-Methyl-benzoyl)-1,2,3,4-tetrahydro-isoquinolin-6-yl]-(octahydro-pyrido[1,2-a]pyrazin-2-yl)-methanone], the figure is 15 nM; as for `Cc1ccc(C(=O)N2CCc3cc(C(=O)N4CCN5CCCCC5C4)ccc3C2)cc1` (stereo not shown) [Example 97, [2-(4-Methyl-benzoyl)-1,2,3,4-tetrahydro-isoquinolin-6-yl]-(octahydro-pyrido[1,2-a]pyrazin-2-yl)-methanone], 38 nM.
For `CC(C)(C)c1ccc(C(=O)N2CCc3cc(C(=O)N4CCN5CCCCC5C4)ccc3C2)cc1` (stereo not shown) [Example 98, [2-(4-tert-Butyl-benzoyl)-1,2,3,4-tetrahydro-isoquinolin-6-yl]-(octahydro-pyrido[1,2-a]pyrazin-2-yl)-methanone] the value was 38 nM; for `O=C(c1ccccc1)N1CCc2cc(C(=O)N3CCN4CCCCC4C3)ccc2C1` (stereo not shown) [Example 99, (2-Benzoyl-1,2,3,4-tetrahydro-isoquinolin-6-yl)-(octahydro-pyrido[1,2-a]pyrazin-2-yl)-methanone], 20 nM; for `CCS(=O)(=O)N1CCc2cc(C(=O)N3CCN(C4CCC4)CC3)ccc2C1` [Example 100, (4-Cyclobutyl-piperazin-1-yl)-(2-ethanesulfonyl-1,2,3,4-tetrahydro-isoquinolin-6-yl)-methanone], 35 nM.
As for `CCCS(=O)(=O)N1CCc2cc(C(=O)N3CCN(C4CCC4)CC3)ccc2C1` [Example 101, (4-Cyclobutyl-piperazin-1-yl)-[2-(propane-1-sulfonyl)-1,2,3,4-tetrahydro-isoquinolin-6-yl]-methanone], the figure is 34 nM; as for `CC(C)S(=O)(=O)N1CCc2cc(C(=O)N3CCN(C4CCC4)CC3)ccc2C1` [Example 102, (4-Cyclobutyl-piperazin-1-yl)-[2-(propane-2-sulfonyl)-1,2,3,4-tetrahydro-isoquinolin-6-yl]-methanone], 25 nM; as for `O=C(c1ccc2c(c1)CCN(S(=O)(=O)c1ccccc1)C2)N1CCN(C2CCC2)CC1` [Example 103, (2-Benzenesulfonyl-1,2,3,4-tetrahydro-isoquinolin-6-yl)-(4-cyclobutyl-piperazin-1-yl)-methanone], 22 nM.
Take `O=C(c1ccc2c(c1)CCN(S(=O)(=O)c1ccc(F)cc1)C2)N1CCN(C2CCC2)CC1` [Example 104, (4-Cyclobutyl-piperazin-1-yl)-[2-(4-fluoro-benzenesulfonyl)-1,2,3,4-tetrahydro-isoquinolin-6-yl]-methanone]: affinity was put at a Ki of 16 nM.
As for `O=C(c1ccc2c(c1)CCN(C(=O)c1ccc(Cl)cc1)C2)N1CCN(C2CCC2)CC1` [Example 105, [2-(4-Chloro-benzoyl)-1,2,3,4-tetrahydro-isoquinolin-6-yl]-(4-cyclobutyl-piperazin-1-yl)-methanone], the figure is 16 nM.
For `CC(C)N1CCN(C(=O)c2ccc3c(c2)CCN(C(=O)c2ccsc2)C3)CC1` [Example 106, (4-Isopropyl-piperazin-1-yl)-[2-(thiophene-3-carbonyl)-1,2,34-tetrahydro-isoquinolin-6-yl]-methanone] the value was 17 nM; for `CC(C)N1CCN(C(=O)c2ccc3c(c2)CCN(C(=O)c2ccc(O)cc2)C3)CC1` [Example 107, [2-(4-Hydroxy-benzoyl)-1,2,3,4-tetrahydro-isoquinolin-6-yl]-(4-isopropyl-piperazin-1-yl)-methanone], 34 nM.
In the case of `COc1ccc(C(=O)N2CCc3cc(C(=O)N4CCN(C(C)C)CC4)ccc3C2)cc1` [Example 108, (4-Isopropyl-piperazin-1-yl)-[2-(4-methoxy-benzoyl)-1,2,3,4-tetrahydro-isoquinolin-6-yl]-methanone], the Ki turned out to be 28 nM.
On to `Cc1ccc(C(=O)N2CCc3cc(C(=O)N4CCN(C(C)C)CC4)ccc3C2)cc1` [Example 109, (4-Isopropyl-piperazin-1-yl)-[2-(4-methyl-benzoyl)-1,2,3,4-tetrahydro-isoquinolin-6-yl]-methanone], for which the Ki is 37 nM.
For the compound `CC(C)N1CCN(C(=O)c2ccc3c(c2)CCN(C(=O)c2ccc(Cl)cc2)C3)CC1` [Example 110, [2-(4-Chloro-benzoyl)-1,2,3,4-tetrahydro-isoquinolin-6-yl]-(4-isopropyl-piperazin-1-yl)-methanone], the Ki is 47 nM.
